Counter-ions that a name gives are not always drawn.

This test concerns the target T1, IRAK4 (Homo sapiens, UniProt Q9NWZ3).
T1 sequence (Q9NWZ3 1-460): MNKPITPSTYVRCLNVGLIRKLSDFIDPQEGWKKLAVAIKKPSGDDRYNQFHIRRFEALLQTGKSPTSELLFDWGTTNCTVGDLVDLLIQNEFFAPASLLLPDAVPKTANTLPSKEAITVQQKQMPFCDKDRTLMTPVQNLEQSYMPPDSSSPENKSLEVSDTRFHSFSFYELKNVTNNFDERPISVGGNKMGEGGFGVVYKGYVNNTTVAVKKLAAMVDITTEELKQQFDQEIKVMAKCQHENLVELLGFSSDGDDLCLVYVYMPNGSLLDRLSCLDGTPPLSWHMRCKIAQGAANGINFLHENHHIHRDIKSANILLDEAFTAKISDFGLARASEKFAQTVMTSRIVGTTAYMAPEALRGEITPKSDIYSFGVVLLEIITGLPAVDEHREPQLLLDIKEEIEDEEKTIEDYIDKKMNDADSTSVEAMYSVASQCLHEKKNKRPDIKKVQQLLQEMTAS
Put plainly: Degradation of IRAK4 in THP1 cells, Western blot. On the set-up: Degradation of IRAK4 in THP1 by compound; host or cells: THP-1. Type of test: cell-based. The conditions noted are these: THP-1 cells, 24 hours of incubation; for DC50: IRAK4 protein by Western blot, read-out: DC50; for Dmax: maximum degradation rate, read-out: Dmax. The gist of the method:
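THP1 cells treated 24 h, lysed; lysates normalised by BCA, 40 μg protein per lane on 10% SDS-PAGE, anti-IRAK4 Western blot with chemiluminescence detection.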

`NC(=O)c1nn(-c2ccc(N3CCN(C4CCN(c5ccc(NC6CCC(=O)NC6=O)cc5F)CC4)CC3)cc2)cc1NC(=O)c1cccc(C(F)(F)F)n1` (centres unmarked) [Compound A365, 1-{4-[4-(1-{4-[(2,6-dioxopiperidin-3-yl)amino]-2-fluorophenyl}piperidin-4-yl)piperazin-1-yl]phenyl}-4-({[6-(trifluoromethyl)pyridin-2-yl]carbonyl}amino)pyrazole-3-carboxamide]: the DC50 was under 100 nM and the Dmax was over 60%.

Regarding `NC(=O)c1nn(-c2ccc(N3CCN(C4CCN(c5ccc(NC6CCC(=O)NC6=O)cn5)CC4)CC3)cc2)cc1NC(=O)c1cccc(C(F)(F)F)n1` (centres unmarked) [Compound A432, N-(3-Carbamoyl-1-(4-(4-(1-(5-((2,6-Dioxopiperidin-3-yl)amino)pyridin-2-yl)piperidin-4-yl)piperazin-1-yl)phenyl)-1H-pyrazol-4-yl)-6-(trifluoromethyl)picolinamide], the DC50 fell in the range of 100 to 1000 nM and the Dmax fell in the range of 40 to 60%.

In the case of `NC(=O)c1nn(-c2ccc(N3CCN(C(=O)N4CCC(c5ccc(OC6CCC(=O)NC6=O)cc5F)CC4)CC3)cc2)cc1NC(=O)c1cccc(C(F)(F)F)n1` (centres unmarked) [Compound A355, N-(3-Carbamoyl-1-(4-(4-(4-(4-((2,6-dioxopiperidin-3-yl)oxy)-2-fluorophenyl)piperidine-1-carbonyl)piperazin-1-yl)phenyl)-1H-pyrazol-4-yl)-6-(trifluoromethyl)picolinamide], the DC50 was under 100 nM and the Dmax was over 60%.

Regarding `Cn1c(-c2ccc(N3CCC(CCN4CCN(c5ccc(-n6cc(NC(=O)c7cccc(C(F)(F)F)n7)c(C(N)=O)n6)cc5)CC4)C3)cc2)nn(C2CCC(=O)NC2=O)c1=O` (centres unmarked) [Compound A185], the DC50 is under 100 nM and the Dmax lay in the range of 40 to 60%.

As to `NC(=O)c1nn(-c2ccc(N3CCN(C(=O)N4CCC(Cc5ccc(N6CCC(=O)NC6=O)cc5)CC4)CC3)cc2)cc1NC(=O)c1cccc(C(F)(F)F)n1` [Compound A448], the DC50 was in the range of 100 to 1000 nM and the Dmax is 40 to 60%.

Turning to `NC(=O)c1nn(-c2ccc(N3CCN(CC4CCN(c5ccc(OC6CCC(=O)NC6=O)cc5F)CC4)CC3)cc2)cc1NC(=O)c1cccc(C(F)(F)F)n1` (centres unmarked) [Compound A421, N-(3-Carbamoyl-1-(4-(4-((1-(4-((2,6-dioxopiperidin-3-yl)oxy)-2-fluorophenyl)piperidin-4-yl)methyl)piperazin-1-yl)phenyl)-1H-pyrazol-4-yl)-6-(trifluoromethyl)picolinamide], the DC50 is under 100 nM and the Dmax was over 60%.

With `Cn1c(=O)n(C2CCC(=O)NC2=O)c2ccc(N3CCC(CN4CCN(c5ccc(-n6cc(NC(=O)c7cccc(C(F)(F)F)n7)c(C(N)=O)n6)cc5)CC4)C3)cc21` (centres unmarked) [Compound A304, N-(3-carbamoyl-1-(4-(4-((1-(1-(2,6-dioxopiperidin-3-yl)-3-methyl-2-oxo-2,3-dihydro-1H-benzo[d]imidazol-5-yl)pyrrolidin-3-yl)methyl)piperazin-1-yl)phenyl)-1H-pyrazol-4-yl)-6-(trifluoromethyl)picolinamide], the DC50 is under 100 nM and the Dmax was 40 to 60%.

As to `N#Cc1ccnc(C(=O)Nc2cn(-c3ccc(N4CCN(C5CCN(c6ccc(NC7CCC(=O)NC7=O)cc6F)CC5)CC4)cc3)nc2C(N)=O)c1` (centres unmarked) [Compound A387, N-(3-Carbamoyl-1-(4-(4-(1-(4-((2,6-Dioxopiperidin-3-yl)amino)-2-fluorophenyl)piperidin-4-yl)piperazin-1-yl)phenyl)-1H-pyrazol-4-yl)-4-cyanopicolinamide], the DC50 is over 1000 nM and the Dmax is under 40%.

For the compound `Cn1c(=O)n(C2CCC(=O)NC2=O)c2cccc(NCC3CCC4(CC3)CCN(C(=O)c3ccc(-n5cc(NC(=O)c6cccc(-c7ccn[nH]7)n6)c(S(N)(=O)=O)n5)cc3)CC4)c21` (centres unmarked) [Compound A330], the DC50 is under 100 nM and the Dmax is over 60%.

In the case of `COc1ccc(C(=O)N2CCC3(CC2)CC(Cc2ccc(-n4cc(NC(=O)c5cccc(C(F)(F)F)n5)c(C(N)=O)n4)cc2)C3)cc1N1CCC(=O)NC1=O` [Compound A318, N-(3-Carbamoyl-1-(4-((7-(3-(2,4-dioxotetrahydropyrimidin-1(2H)-yl)-4-methoxybenzoyl)-7-azaspiro[3.5]nonan-2-yl)methyl)phenyl)-1H-pyrazol-4-yl)-6-(trifluoromethyl)picolinamide], the DC50 was under 100 nM and the Dmax is over 60%.

On to `Cn1c(=O)n(C2CCC(=O)NC2=O)c2cccc(N3CCC4(CCN(CCNC(=O)c5ccc(-n6cc(NC(=O)c7cccc(-c8ccn[nH]8)n7)c(S(N)(=O)=O)n6)cc5)C4)C3)c21` (centres unmarked) [Compound A341, N-(1-(4-((2-(7-(1-(2,6-Dioxopiperidin-3-yl)-3-methyl-2-oxo-2,3-dihydro-1H-benzo[d]imidazol-4-yl)-2,7-diazaspiro[4.4]nonan-2-yl)ethyl)carbamoyl)phenyl)-3-sulfamoyl-1H-pyrazol-4-yl)-6-(1H-pyrazol-5-yl)picolinamide formate], for which the DC50 is under 100 nM and the Dmax was over 60%.

Take `NC(=O)c1nn(-c2ccc(N3CCN(C(=O)C4CN(c5ccc(N6CCC(=O)NC6=O)cc5)C4)CC3)cc2)cc1NC(=O)c1cccc(C(F)(F)F)n1` [Compound A409, N-(3-Carbamoyl-1-(4-(4-(1-(4-(2,4-dioxotetrahydropyrimidin-1(2H)-yl)phenyl)azetidine-3-carbonyl)piperazin-1-yl)phenyl)-1H-pyrazol-4-yl)-6-(trifluoromethyl)picolinamide]: the 50% degradation concentration (DC50) is under 100 nM and the Dmax was over 60%.

For `CC(C)(O)c1nn(-c2ccc(N3CCN(C4CCN(c5ccc(NC6CCC(=O)NC6=O)cc5F)CC4)CC3)cc2)cc1NC(=O)c1cccc(C(F)(F)F)n1` (centres unmarked) [Compound A439, N-(1-(4-(4-(1-(-4-((2,6-Dioxopiperidin-3-yl)amino)-2-fluorophenyl)piperidin-4-yl)piperazin-1-yl)phenyl)-3-(2-hydroxypropan-2-yl)-1H-pyrazol-4-yl)-6-(trifluoromethyl)picolinamide], the DC50 is under 100 nM and the Dmax is over 60%.

Take `CC(C)(O)c1nn(-c2ccc(N3CCN(CCC4CCN(C(=O)c5ccc(F)c(N6CCC(=O)NC6=O)c5)CC4)CC3)cc2)cc1NC(=O)c1cccc(C(F)(F)F)n1` [Compound A453, N-(1-(4-(4-(2-(1-(3-(2,4-Dioxotetrahydropyrimidin-1(2H)-yl)-4-fluorobenzoyl)piperidin-4-yl)ethyl)piperazin-1-yl)phenyl)-3-(2-hydroxypropan-2-yl)-1H-pyrazol-4-yl)-6-(trifluoromethyl)picolinamide]: the DC50 is under 100 nM and the Dmax was over 60%.

With `CC(C)(O)c1nn(-c2ccc(N3CCN(CC4CCN(c5ccc(NC6CCC(=O)NC6=O)cn5)CC4)CC3)cc2)cc1NC(=O)c1cccc(C(F)(F)F)n1` (centres unmarked) [Compound A438, N-(1-(4-(4-((1-(5-((2,6-Dioxopiperidin-3-yl)amino)pyridin-2-yl)piperidin-4-yl)methyl)piperazin-1-yl)phenyl)-3-(2-hydroxypropan-2-yl)-1H-pyrazol-4-yl)-6-(trifluoromethyl)picolinamide formate], the DC50 is under 100 nM and the Dmax was over 60%.

For the compound `NC(=O)c1nn(-c2ccc(N3CCN(CC4CC5(CCN(c6ccc(N7CCC(=O)NC7=O)cc6)CC5)C4)CC3)cc2)cc1NC(=O)c1cccc(C(F)(F)F)n1` [Compound A392, N-(3-Carbamoyl-1-(4-(4-((7-(4-(2,4-dioxotetrahydropyrimidin-1(2H)-yl)phenyl)-7-azaspiro[3.5]nonan-2-yl)methyl)piperazin-1-yl)phenyl)-1H-pyrazol-4-yl)-6-(trifluoromethyl)picolinamide], the DC50 lay within 100 to 1000 nM and the Dmax lay within 40 to 60%.

On to `N#Cc1cccc(C(=O)Nc2cn(-c3ccc(N4CCN(CC5CCN(c6ccc(NC7CCC(=O)NC7=O)cc6F)CC5)CC4)cc3)nc2C(N)=O)n1` (centres unmarked) [Compound A384, N-(3-Carbamoyl-1-(4-(4-((1-(4-((2,6-dioxopiperidin-3-yl)amino)-2-fluorophenyl)piperidin-4-yl)methyl)piperazin-1-yl)phenyl)-1H-pyrazol-4-yl)-6-cyanopicolinamide], for which the DC50 was over 1000 nM and the Dmax is under 40%.

Regarding `Cn1c(=O)n(C2CCC(=O)NC2=O)c2ccc(N3CCC(CN4CCN(c5ccc(-n6cc(NC(=O)c7cccc(C(F)(F)F)n7)c(C(N)=O)n6)cc5)CC4)C(F)(F)C3)cc21` (centres unmarked) [Compound A299, N-(3-Carbamoyl-1-(4-(4-((1-(1-(2,6-dioxopiperidin-3-yl)-3-methyl-2-oxo-2,3-dihydro-1H-benzo[d]imidazol-5-yl)-3,3-difluoropiperidin-4-yl)methyl)piperazin-1-yl)phenyl)-1H-pyrazol-4-yl)-6-(trifluoromethyl)picolinamide], the DC50 was under 100 nM and the Dmax is over 60%.

In the case of `NC(=O)c1nn(-c2ccc(N3CCN(C4CCN(c5ccc(C(=O)NC6CCC(=O)NC6=O)c(F)c5)CC4)CC3)cc2)cc1NC(=O)c1cccc(C(F)(F)F)n1` (centres unmarked) [Compound A422, N-(3-Carbamoyl-1-(4-(4-(1-(4-((2,6-dioxopiperidin-3-yl)carbamoyl)-3-fluorophenyl)piperidin-4-yl)piperazin-1-yl)phenyl)-1H-pyrazol-4-yl)-6-(trifluoromethyl)picolinamide], the DC50 was under 100 nM and the Dmax was over 60%.

For the origin of these results see patent EP4763839A1 (Pamplona Therapeutics (Shenzhen) Co., Ltd., priority 2023, dated 2025).
